The test system of the test is BDF1 mice, B16 melanoma s.c., survival/tumor T/C. The experiment in a line: NCI In Vivo Anticancer Drug Screen. Data for tumor model B16 Melanoma (subcutaneous) in B6D2F1 (BDF1) mice. The method, then: The antitumor activity of compounds was measured in mice bearing transplantable tumors. Survival or tumor size were measured and the results are expressed as the measurement made in the treated group (T) divided by the measurement made in the vehicle treated control group (C). The tumor model used in this assay is B16 Melanoma (subcutaneous) in B6D2F1 (BDF1) mice

Setting [1] is: endpoint: median survival time, dose: 100.0 mg/kg/injection, schedule: Q01DX009 (ip), vehicle: Klucel (hydroxypropylcellulose) (HPC), higher = longer survival.
Where [2] appears, read: endpoint: median survival time, dose: 200.0 mg/kg/injection, schedule: Q01DX009 (ip), vehicle: Klucel (hydroxypropylcellulose) (HPC), higher = longer survival.
[3] abbreviates: endpoint: median survival time, dose: 400.0 mg/kg/injection, schedule: Q01DX009 (ip), vehicle: Klucel (hydroxypropylcellulose) (HPC), higher = longer survival.

Where “and” joins values, the source holds several entries; their conditions need not be identical. Equal entries are not always repeated. Results filed as inconclusive are left out.

Turning to `NCCc1nc(-c2nc(C(=O)O)cs2)cs1`, the T/C (endpoint: median survival time, dose: 6.25 mg/kg/injection, schedule: Q01DX009 (ip), vehicle: water, higher = longer survival) was 98 % of control; the T/C (endpoint: median survival time, dose: 12.5 mg/kg/injection, schedule: Q01DX009 (ip), vehicle: water, higher = longer survival) was 95 % of control; the T/C (endpoint: median survival time, dose: 25.0 mg/kg/injection, schedule: Q01DX009 (ip), vehicle: water, higher = longer survival) was 91 % of control; the T/C (endpoint: median survival time, dose: 50.0 mg/kg/injection, schedule: Q01DX009 (ip), vehicle: water, higher = longer survival) is 92 % of control; the T/C (endpoint: median survival time, dose: 100.0 mg/kg/injection, schedule: Q01DX009 (ip), vehicle: water, higher = longer survival) was 95 % of control.

Turning to `Nc1ncnc2c1ncn2C1OC(CO)C(O)C1O` (stereo not given), the T/C reads like this: (endpoint: median survival time, dose: 60.0 mg/kg/injection, schedule: Q03HX024 (ip), vehicle: saline with Tween-80, higher = longer survival) 115 % of control; (endpoint: median survival time, dose: 70.0 mg/kg/injection, schedule: Q03HX024 (ip), vehicle: saline with Tween-80, higher = longer survival) 96 % of control; (endpoint: median survival time, dose: 80.0 mg/kg/injection, schedule: Q03HX024 (ip), vehicle: saline with Tween-80, higher = longer survival) 105 % of control; (endpoint: median survival time, dose: 160.0 mg/kg/injection, schedule: Q03HX024 (ip), vehicle: saline with Tween-80, higher = longer survival) 115 % of control; (endpoint: median survival time, dose: 240.0 mg/kg/injection, schedule: Q03HX024 (ip), vehicle: saline with Tween-80, higher = longer survival) 121 % of control.

With `N[C@H](C(=O)O)[C@H]1ON=C(Cl)[C@@H]1O`, the T/C is 113 % of control (endpoint: median survival time, dose: 8.0 mg/kg/injection, schedule: Q01DX009 (ip), vehicle: saline, higher = longer survival); 114 % of control (endpoint: median survival time, dose: 16.0 mg/kg/injection, schedule: Q01DX009 (ip), vehicle: saline, higher = longer survival); 108 % of control (endpoint: median survival time, dose: 32.0 mg/kg/injection, schedule: Q01DX009 (ip), vehicle: saline, higher = longer survival); 114 % of control (endpoint: median survival time, dose: 128.0 mg/kg/injection, schedule: Q01DX009 (ip), vehicle: saline, higher = longer survival); 114 % of control (endpoint: median survival time, dose: 256.0 mg/kg/injection, schedule: Q01DX009 (ip), vehicle: saline, higher = longer survival); 117 % of control (endpoint: median survival time, dose: 500.0 mg/kg/injection, schedule: Q01DX009 (ip), vehicle: saline with Tween-80, higher = longer survival).

In the case of `CN(C)c1ccc(C(=O)c2ccc(N(C)C)cc2)cc1`, the T/C under setting [1] is 113 % of control, the T/C under setting [2] is 98 % of control and the T/C under setting [3] is 110 % of control.

In the case of `Cn1ncc2c(N)ncnc21`, the T/C was 104 % of control (endpoint: median survival time, dose: 2.0 mg/kg/injection, schedule: Q01DX009 (ip), vehicle: Klucel (hydroxypropylcellulose) (HPC), higher = longer survival); 106 % of control (endpoint: median survival time, dose: 4.0 mg/kg/injection, schedule: Q01DX009 (ip), vehicle: Klucel (hydroxypropylcellulose) (HPC), higher = longer survival); 115 % of control (endpoint: median survival time, dose: 8.0 mg/kg/injection, schedule: Q01DX009 (ip), vehicle: Klucel (hydroxypropylcellulose) (HPC), higher = longer survival).

`COc1cc2c[n+](C)c3c4cc5c(cc4ccc3c2cc1OC)OCO5`: the T/C is 107 % of control (endpoint: median survival time, dose: 3.12 mg/kg/injection, schedule: Q01DX009 (ip), vehicle: Klucel (hydroxypropylcellulose) (HPC), higher = longer survival); 96 % of control (endpoint: median survival time, dose: 6.25 mg/kg/injection, schedule: Q01DX009 (ip), vehicle: Klucel (hydroxypropylcellulose) (HPC), higher = longer survival); 116 % of control (endpoint: median survival time, dose: 12.5 mg/kg/injection, schedule: Q01DX009 (ip), vehicle: Klucel (hydroxypropylcellulose) (HPC), higher = longer survival).

Regarding `Cc1c(N)nc(C(CC(N)=O)NCC(N)C(N)=O)nc1C(=O)NC(C(=O)NC(C)C(O)C(C)C(=O)NC(C(=O)NCCc1nc(-c2nc(C(=O)NCCCNC(C)c3ccccc3)cs2)cs1)C(C)O)C(OC1OC(CO)C(O)C(O)C1OC1OC(CO)C(O)C(OC(N)=O)C1O)c1cnc[nH]1` (stereo not given), the T/C is, setting by setting: (endpoint: median survival time, dose: 0.13 mg/kg/injection, schedule: Q01DX010 (ip), vehicle: water, higher = longer survival) 97 % of control; (endpoint: median survival time, dose: 0.25 mg/kg/injection, schedule: Q01DX009 (ip), vehicle: water, higher = longer survival) 105 % of control and 120 % of control; (endpoint: median survival time, dose: 0.25 mg/kg/injection, schedule: Q01DX010 (ip), vehicle: water, higher = longer survival) 97 % of control; (endpoint: median survival time, dose: 0.5 mg/kg/injection, schedule: Q01DX009 (ip), vehicle: water, higher = longer survival) 100 % of control; (endpoint: median survival time, dose: 0.5 mg/kg/injection, schedule: Q01DX010 (ip), vehicle: water, higher = longer survival) 124 % of control; (endpoint: median survival time, dose: 1.0 mg/kg/injection, schedule: Q01DX009 (ip), vehicle: water, higher = longer survival) 184 % of control. Also, the T/C is 112 % of control (endpoint: median survival time, dose: 1.0 mg/kg/injection, schedule: Q01DX010 (ip), vehicle: water, higher = longer survival); 112 % of control (endpoint: median survival time, dose: 2.0 mg/kg/injection, schedule: Q01DX010 (ip), vehicle: water, higher = longer survival); 98 % of control (endpoint: median survival time, dose: 4.0 mg/kg/injection, schedule: Q01DX010 (ip), vehicle: water, higher = longer survival); 106 % of control (endpoint: median survival time, dose: 8.0 mg/kg/injection, schedule: Q01DX009 (ip), vehicle: water, higher = longer survival).

For `O=P(O)(NCCCl)NCCCl`, the T/C reads like this: (endpoint: median survival time, dose: 50.0 mg/kg/injection, schedule: Q01DX001 (ip), vehicle: saline, higher = longer survival) 98 % of control; (endpoint: median survival time, dose: 150.0 mg/kg/injection, schedule: Q01DX001 (ip), vehicle: saline, higher = longer survival) 162 % of control.

Take `CC(=O)O[C@]1(C(C)=O)CC[C@H]2[C@@H]3C[C@H](C)C4=CC(=O)CC[C@]4(C)[C@H]3CC[C@@]21C`: the T/C under setting [1] is 111 % of control and 112 % of control; the T/C under setting [2] was 86 % of control and 102 % of control; the T/C under setting [3] is 96 % of control and 102 % of control; the T/C (endpoint: median survival time, dose: 800.0 mg/kg/injection, schedule: Q01DX009 (ip), vehicle: Klucel (hydroxypropylcellulose) (HPC), higher = longer survival) is 104 % of control and 111 % of control.

For `CC1(C)N=C(N)N=C(N)N1c1ccc(CCCCc2ccc(S(=O)(=O)F)cc2Cl)c(Cl)c1`, the T/C by setting is: (endpoint: median survival time, dose: 6.25 mg/kg/injection, schedule: Q01DX009 (ip), vehicle: saline, higher = longer survival) 119 % of control; (endpoint: median survival time, dose: 12.5 mg/kg/injection, schedule: Q01DX009 (ip), vehicle: saline, higher = longer survival) 90 % of control; (endpoint: median survival time, dose: 18.75 mg/kg/injection, schedule: Q04DX003 (ip), vehicle: saline, higher = longer survival) 88 % of control; (endpoint: median survival time, dose: 25.0 mg/kg/injection, schedule: Q01DX009 (ip), vehicle: saline, higher = longer survival) 111 % of control; (endpoint: median survival time, dose: 37.5 mg/kg/injection, schedule: Q04DX003 (ip), vehicle: saline, higher = longer survival) 105 % of control; (endpoint: median survival time, dose: 75.0 mg/kg/injection, schedule: Q04DX003 (ip), vehicle: saline, higher = longer survival) 110 % of control. In addition, the T/C (endpoint: median survival time, dose: 150.0 mg/kg/injection, schedule: Q04DX003 (ip), vehicle: saline, higher = longer survival) was 119 % of control.

Take `O=c1[nH]c(=O)n(C2CC(O)C(CO)O2)cc1F` (stereo not given): the T/C (endpoint: median survival time, dose: 25.0 mg/kg/injection, schedule: Q01DX009 (ip), vehicle: saline with Tween-80, higher = longer survival) is 109 % of control; the T/C (endpoint: median survival time, dose: 100.0 mg/kg/injection, schedule: Q01DX009 (ip), vehicle: saline with Tween-80, higher = longer survival) is 122 % of control; the T/C (endpoint: median survival time, dose: 200.0 mg/kg/injection, schedule: Q01DX009 (ip), vehicle: saline with Tween-80, higher = longer survival) was 120 % of control; the T/C (endpoint: median survival time, dose: 200.0 mg/kg/injection, schedule: Q04DX003 (ip), vehicle: saline, higher = longer survival) is 112 % of control; the T/C (endpoint: median tumor weight (est.), dose: 25.0 mg/kg/injection, schedule: Q01DX009 (ip), vehicle: saline with Tween-80, higher = larger tumour) was 68 % of control; the T/C (endpoint: median tumor weight (est.), dose: 50.0 mg/kg/injection, schedule: Q01DX009 (ip), vehicle: saline with Tween-80, higher = larger tumour) is 59 % of control. The T/C by setting is: (endpoint: median tumor weight (est.), dose: 50.0 mg/kg/injection, schedule: Q01DX009 (ip), vehicle: saline, higher = larger tumour) 96 % of control and 220 % of control; (endpoint: median tumor weight (est.), dose: 100.0 mg/kg/injection, schedule: Q01DX009 (ip), vehicle: saline with Tween-80, higher = larger tumour) 41 % of control; (endpoint: median tumor weight (est.), dose: 100.0 mg/kg/injection, schedule: Q01DX009 (ip), vehicle: saline, higher = larger tumour) 49 % of control and 71 % of control; (endpoint: median tumor weight (est.), dose: 200.0 mg/kg/injection, schedule: Q01DX009 (ip), vehicle: saline, higher = larger tumour) 55 % of control.

In the case of `COc1cccc2c1C(=O)c1c(O)c3c(c(O)c1C2=O)CC(O)(C(=O)CO)CC3OC1CC(N)C(O)C(C)O1` (stereo not given), the T/C (endpoint: median survival time, dose: 2.9 mg/kg/injection, schedule: Q01DX009 (ip), vehicle: saline, higher = longer survival) was 103 % of control and the T/C (endpoint: median survival time, dose: 5.8 mg/kg/injection, schedule: Q01DX009 (ip), vehicle: saline, higher = longer survival) was 107 % of control.

With `O=P1(NCCCl)OCCCN1CCCl` (stereo not given), the T/C is, setting by setting: (endpoint: median survival time, dose: 300.0 mg/kg/injection, schedule: Q01DX001 (ip), vehicle: saline, higher = longer survival) 154 % of control; (endpoint: median survival time, dose: 460.0 mg/kg/injection, schedule: Q01DX001 (ip), vehicle: saline, higher = longer survival) 150 % of control.

As to `COC1/C=C\C=C(/C)C(=O)NC2=CC(=O)C(=O)C(=C2O)CC(C)CC(OC)C(O)C(C)/C=C(\C)C1OC(N)=O` (stereo not given), the T/C reads like this: (endpoint: median survival time, dose: 0.78 mg/kg/injection, schedule: Q01DX005 (ip), vehicle: other, higher = longer survival) 88 % of control; (endpoint: median survival time, dose: 3.13 mg/kg/injection, schedule: Q01DX005 (ip), vehicle: other, higher = longer survival) 114 % of control; (endpoint: median survival time, dose: 6.25 mg/kg/injection, schedule: Q01DX005 (ip), vehicle: other, higher = longer survival) 105 % of control.
